Measurements: the NIST ThermoML archive (doi:10.1021/je400722h)

Experiment: molar heat capacity at constant pressure; xn = mol fraction of the nth substance listed
Conditions: 101 kPa, Liquid, Small sample (50 mg) DSC

Cc1ccccc1Cl [2-chlorotoluene] + C1CCOCC1
molar heat capacity at constant pressure [J/K/mol]
Conditions | 298.15 K | 303.15 K | 308.15 K
x1 = 0.0897 | 152.82 | 154.4 | 156.2
x1 = 0.1165 | 153.77 | 155.35 | 157.14
x1 = 0.1429 | 154.71 | 156.28 | 158.07
x1 = 0.1929 | 156.46 | 158.04 | 159.8
x1 = 0.2376 | 158.01 | 159.59 | 161.34
x1 = 0.2892 | 159.77 | 161.35 | 163.09
x1 = 0.3218 | 160.85 | 162.44 | 164.17
x1 = 0.3519 | 161.84 | 163.43 | 165.15
x1 = 0.4019 | 163.44 | 165.03 | 166.75
x1 = 0.4427 | 164.71 | 166.31 | 168.01
x1 = 0.4817 | 165.88 | 167.49 | 169.19
x1 = 0.5216 | 167.05 | 168.66 | 170.35
x1 = 0.5549 | 168 | 169.62 | 171.3
x1 = 0.5936 | 169.07 | 170.69 | 172.36
x1 = 0.6215 | 169.81 | 171.44 | 173.11
x1 = 0.6518 | 170.6 | 172.23 | 173.9
x1 = 0.6902 | 171.57 | 173.21 | 174.87
x1 = 0.7205 | 172.31 | 173.96 | 175.62
x1 = 0.7515 | 173.04 | 174.7 | 176.36
x1 = 0.7931 | 173.99 | 175.66 | 177.32
x1 = 0.8156 | 174.49 | 176.17 | 177.83
x1 = 0.8472 | 175.18 | 176.87 | 178.52
x1 = 0.8831 | 175.93 | 177.63 | 179.3
x1 = 0.9146 | 176.56 | 178.29 | 179.96
